Experimental findings from patent publication EP0191399A2, “Benz[a]anthraquinone compounds, a microbial process for their preparation and their use as medicaments” (priority 1985, dated 1986) are described below.

Values after ≈ are worked out from the molar mass of the structure shown.

The first data set concerns L1210 leukemia cells. Nature of the data set: Anti-tumor activity against intraperitoneally transplanted L1210 leukemia in mice (life prolongation). It counts as in vivo, CDF1 mice. The following applies: dose 0.156 mg/Kg/dat, intraperitoneal for 10 days; survival of saline control taken as 100. Here is the method:
L1210 leukemia cells (1 x 10^5 per animal) were transplanted intraperitoneally into CDF1 mice. Immediately after the transplantation, a solution of MH190 Y2 was injected intraperitoneally for 10 days in a dose of […]. The percentage life prolongation of each of the treated mice was checked and the results are shown below, with the number of days of survival of control mice to which physiological saline had been administered being taken as 100.
On to `CC1OC(OC2CCC(OC3(C)CC(=O)C4(O)C5=C(C=CC4(O)C3)C(=O)c3c(ccc(C4CC6OC7CC(=O)C(C)OC7OC6C(C)O4)c3O)C5=O)OC2C)C=CC1=O` (centres unmarked) [MH190 Y2, Saquayamycin B], for which the Percentage life prolongation was determined as 102.

Staying with this data set, now noted: dose 0.313 mg/Kg/dat, intraperitoneal for 10 days; survival of saline control taken as 100.
On to `CC1OC(OC2CCC(OC3(C)CC(=O)C4(O)C5=C(C=CC4(O)C3)C(=O)c3c(ccc(C4CC6OC7CC(=O)C(C)OC7OC6C(C)O4)c3O)C5=O)OC2C)C=CC1=O` (centres unmarked) [MH190 Y2, Saquayamycin B], for which the Percentage life prolongation is recorded as 127.

The same data set, now with this note: dose 0.625 mg/Kg/dat, intraperitoneal for 10 days; survival of saline control taken as 100.
Turning to `CC1OC(OC2CCC(OC3(C)CC(=O)C4(O)C5=C(C=CC4(O)C3)C(=O)c3c(ccc(C4CC6OC7CC(=O)C(C)OC7OC6C(C)O4)c3O)C5=O)OC2C)C=CC1=O` (centres unmarked) [MH190 Y2, Saquayamycin B], the Percentage life prolongation came to 120.

Still in this data set, the particulars now being: dose 1.25 mg/Kg/dat, intraperitoneal for 10 days; survival of saline control taken as 100.
As to `CC1OC(OC2CCC(OC3(C)CC(=O)C4(O)C5=C(C=CC4(O)C3)C(=O)c3c(ccc(C4CC6OC7CC(=O)C(C)OC7OC6C(C)O4)c3O)C5=O)OC2C)C=CC1=O` (centres unmarked) [MH190 Y2, Saquayamycin B], the Percentage life prolongation worked out at 127.

Staying with this data set, now noted: dose 2.5 mg/Kg/dat, intraperitoneal for 10 days; survival of saline control taken as 100.
The compound `CC1OC(OC2CCC(OC3(C)CC(=O)C4(O)C5=C(C=CC4(O)C3)C(=O)c3c(ccc(C4CC6OC7CC(=O)C(C)OC7OC6C(C)O4)c3O)C5=O)OC2C)C=CC1=O` (centres unmarked) [MH190 Y2, Saquayamycin B] came in with a Percentage life prolongation of 151.

The data set is the same for the next values; noted with them: dose 5 mg/Kg/dat, intraperitoneal for 10 days; survival of saline control taken as 100.
In turn, `CC1OC(OC2CCC(OC3(C)CC(=O)C4(O)C5=C(C=CC4(O)C3)C(=O)c3c(ccc(C4CC6OC7CC(=O)C(C)OC7OC6C(C)O4)c3O)C5=O)OC2C)C=CC1=O` (centres unmarked) [MH190 Y2, Saquayamycin B] gave a Percentage life prolongation of 175.

The same data set, now with this note: doses ranging from 0.313 to 5 mg/kg/day.
On to `CC1OC(OC2CCC(OC3(C)CC(=O)C4(O)C5=C(C=CC4(O)C3)C(=O)c3c(ccc(C4CC6OC7CC(=O)C(C)OC7OC6C(C)O4)c3O)C5=O)OC2C)C=CC1=O` (centres unmarked) [MH190 Y2, Saquayamycin B], for which the anti-tumor activities entry is “appreciable anti-tumor activities”.

Tested on in the next data set: not listed separately
Nature of the data set: Stability (physicochemical properties, Table 5). The following applies: light, acid, alkali, silica gel.
As to `CC1OC2OC3C(C)OC(c4ccc5c(c4O)C(=O)C4=C(C5=O)C5(O)C(=O)CC(C)(O)CC5(O)C=C4)CC3OC2CC1=O` (centres unmarked) [MH190 Y2-1, Saquayamycin B1], the Stability result is “instable against light, acid and alkali”.

For the compound `CC1OC(OC2C(O)CC(c3ccc4c(c3O)C(=O)C3=C(C4=O)C4(O)C(=O)CC(C)(O)CC4(O)C=C3)OC2C)CCC1=O` (centres unmarked) [MH190 Y3-1, Saquayamycin C1], the Stability entry was “instable against light, acid and alkali”.

Consider `CC1OC(OC2C(O)CC(c3ccc4c(c3O)C(=O)C3=C(C4=O)C4(O)C(=O)CC(C)(O)CC4(O)C=C3)OC2C)C=CC1=O` (centres unmarked) [MH190 Y1-1, Saquayamycin A1], for which the Stability result was “instable against light, acid and alkali changed to MH190 Y2 on silica gel”.

In the case of `CC1OC(OC2CCC(OC3(C)CC(=O)C4(O)C5=C(C=CC4(O)C3)C(=O)c3c(ccc(C4CC6OC7CC(=O)C(C)OC7OC6C(C)O4)c3O)C5=O)OC2C)C=CC1=O` (centres unmarked) [MH190 Y2, Saquayamycin B], the Stability result was “instable against light, acid and alkali”.

The subject of another data set is Adriamycin-sensitive P388 leukemia cells (P388/S). Kind of data set: Growth inhibition of cultured Adriamycin-sensitive P388 leukemia cells. It counts as cell-based. To be noted: Mus musculus, P388/S, read-out: IC50 (μg/ml) P388/S. From the text:
The substance MH190 of the present invention are capable of inhibiting the growth of cultured Adriamycin-sensitive P388 leukemia cells (P388/S) and Adriamycin-resistant P388 leukemia cells (P388/ADR) in very low concentrations.
As for `CC1OC2OC3C(C)OC(c4ccc5c(c4O)C(=O)C4=C(C5=O)C5(O)C(=O)CC(C)(O)CC5(O)C=C4)CC3OC2CC1=O` (centres unmarked) [MH190 Y2-1, Saquayamycin B1], the IC50 is 0.13 µg/mL (≈ 0.218 µM).

For the compound `CC1OC(OC2C(O)CC(c3ccc4c(c3O)C(=O)C3=C(C4=O)C4(O)C(=O)CC(C)(O)CC4(O)C=C3)OC2C)C=CC1=O` (centres unmarked) [MH190 Y1-1, Saquayamycin A1], the IC50 came to 0.175 µg/mL (≈ 0.293 µM).

Consider `CC1OC(OC2CCC(OC3(C)CC(=O)C4(O)C5=C(C=CC4(O)C3)C(=O)c3c(ccc(C4CC6OC7CC(=O)C(C)OC7OC6C(C)O4)c3O)C5=O)OC2C)C=CC1=O` (centres unmarked) [MH190 Y2, Saquayamycin B], for which the IC50 was 0.08 µg/mL (≈ 0.0975 µM).

Tested on in another data set: not listed separately
Nature of the data set: Solubility in solvents (physicochemical properties, Table 5). To be noted: solvents in which the substance is soluble.
Turning to `CC1OC2OC3C(C)OC(c4ccc5c(c4O)C(=O)C4=C(C5=O)C5(O)C(=O)CC(C)(O)CC5(O)C=C4)CC3OC2CC1=O` (centres unmarked) [MH190 Y2-1, Saquayamycin B1], the “Solubility (1) Soluble” value is recorded as “CHCl3, ethyl acetate, butyl acetate, methanol, acetonitrile, acetone, dimethyl sulfoxide”.

As to `CC1OC(OC2C(O)CC(c3ccc4c(c3O)C(=O)C3=C(C4=O)C4(O)C(=O)CC(C)(O)CC4(O)C=C3)OC2C)CCC1=O` (centres unmarked) [MH190 Y3-1, Saquayamycin C1], the “Solubility (1) Soluble” value was “CHCl3, ethyl acetate, butyl acetate, methanol, acetonitrile acetone, dimethyl sulfoxide”.

With `CC1OC(OC2C(O)CC(c3ccc4c(c3O)C(=O)C3=C(C4=O)C4(O)C(=O)CC(C)(O)CC4(O)C=C3)OC2C)C=CC1=O` (centres unmarked) [MH190 Y1-1, Saquayamycin A1], the “Solubility (1) Soluble” value was “CHCl3, ethyl acetate, butyl acetate, methanol, acetonitrile, acetone, dimethyl sulfoxide”.

In the case of `CC1OC(OC2CCC(OC3(C)CC(=O)C4(O)C5=C(C=CC4(O)C3)C(=O)c3c(ccc(C4CC6OC7CC(=O)C(C)OC7OC6C(C)O4)c3O)C5=O)OC2C)C=CC1=O` (centres unmarked) [MH190 Y2, Saquayamycin B], the “Solubility (1) Soluble” value is “CHCl3, ethyl acetate, butyl acetate, methanol, acetonitrile, acetone, dimethyl sulfoxide”.

Still in this data set, the particulars now being: solvents in which the substance is sparingly soluble.
With `CC1OC2OC3C(C)OC(c4ccc5c(c4O)C(=O)C4=C(C5=O)C5(O)C(=O)CC(C)(O)CC5(O)C=C4)CC3OC2CC1=O` (centres unmarked) [MH190 Y2-1, Saquayamycin B1], the “Solubility (2) Sparingly soluble” value is on record as “H2O, hexane, petroleum ether”.

For the compound `CC1OC(OC2C(O)CC(c3ccc4c(c3O)C(=O)C3=C(C4=O)C4(O)C(=O)CC(C)(O)CC4(O)C=C3)OC2C)CCC1=O` (centres unmarked) [MH190 Y3-1, Saquayamycin C1], the “Solubility (2) Sparingly soluble” value is given as “H2O, hexane, petroleum ether”.

For `CC1OC(OC2C(O)CC(c3ccc4c(c3O)C(=O)C3=C(C4=O)C4(O)C(=O)CC(C)(O)CC4(O)C=C3)OC2C)C=CC1=O` (centres unmarked) [MH190 Y1-1, Saquayamycin A1], the “Solubility (2) Sparingly soluble” value is reported as “H2O, hexane, petroleum ether”.

Turning to `CC1OC(OC2CCC(OC3(C)CC(=O)C4(O)C5=C(C=CC4(O)C3)C(=O)c3c(ccc(C4CC6OC7CC(=O)C(C)OC7OC6C(C)O4)c3O)C5=O)OC2C)C=CC1=O` (centres unmarked) [MH190 Y2, Saquayamycin B], the “Solubility (2) Sparingly soluble” value is recorded as “H2O, hexane, petroleum ether”.

The test system of the next data set is Adriamycin-resistant P388 leukemia cells (P388/ADR). Kind of data set: Growth inhibition of cultured Adriamycin-resistant (multi-drug resistant) P388 leukemia cells. The class given is cell-based. To be noted: Mus musculus, P388/ADR, read-out: IC50 (μg/ml) P388/ADR.
Take `CC1OC2OC3C(C)OC(c4ccc5c(c4O)C(=O)C4=C(C5=O)C5(O)C(=O)CC(C)(O)CC5(O)C=C4)CC3OC2CC1=O` (centres unmarked) [MH190 Y2-1, Saquayamycin B1]: the IC50 stood at 0.074 µg/mL (≈ 0.124 µM).

`CC1OC(OC2C(O)CC(c3ccc4c(c3O)C(=O)C3=C(C4=O)C4(O)C(=O)CC(C)(O)CC4(O)C=C3)OC2C)C=CC1=O` (centres unmarked) [MH190 Y1-1, Saquayamycin A1]: the IC50 was 0.09 µg/mL (≈ 0.151 µM).

For the compound `CC1OC(OC2CCC(OC3(C)CC(=O)C4(O)C5=C(C=CC4(O)C3)C(=O)c3c(ccc(C4CC6OC7CC(=O)C(C)OC7OC6C(C)O4)c3O)C5=O)OC2C)C=CC1=O` (centres unmarked) [MH190 Y2, Saquayamycin B], the IC50 amounted to 0.067 µg/mL (≈ 0.0816 µM).

Staying with this data set, now noted: ratio of IC50 P388/ADR to IC50 P388/S.
In the case of `CC1OC2OC3C(C)OC(c4ccc5c(c4O)C(=O)C4=C(C5=O)C5(O)C(=O)CC(C)(O)CC5(O)C=C4)CC3OC2CC1=O` (centres unmarked) [MH190 Y2-1, Saquayamycin B1], the “Ratio (P388/ADR to P388/S)” value worked out at 0.57.

Take `CC1OC(OC2C(O)CC(c3ccc4c(c3O)C(=O)C3=C(C4=O)C4(O)C(=O)CC(C)(O)CC4(O)C=C3)OC2C)C=CC1=O` (centres unmarked) [MH190 Y1-1, Saquayamycin A1]: the “Ratio (P388/ADR to P388/S)” value is 0.51.

`CC1OC(OC2CCC(OC3(C)CC(=O)C4(O)C5=C(C=CC4(O)C3)C(=O)c3c(ccc(C4CC6OC7CC(=O)C(C)OC7OC6C(C)O4)c3O)C5=O)OC2C)C=CC1=O` (centres unmarked) [MH190 Y2, Saquayamycin B]: the “Ratio (P388/ADR to P388/S)” value came out at 0.84.

Tested on in a further data set: not listed separately
Nature of the data set: Acute toxicity (LD50), single intraperitoneal injection. To be noted: mouse, in vivo, ip; single intraperitoneal injection into mice.
The compound `CC1OC(OC2CCC(OC3(C)CC(=O)C4(O)C5=C(C=CC4(O)C3)C(=O)c3c(ccc(C4CC6OC7CC(=O)C(C)OC7OC6C(C)O4)c3O)C5=O)OC2C)C=CC1=O` (centres unmarked) [MH190 Y2, Saquayamycin B] showed an LD50 of 6.25 to 12.5 mg/kg.
